We go through one compound from ChEMBL document CHEMBL5113500, “New brefeldin A-cinnamic acid ester derivatives as potential antitumor agents: Design, synthesis and biological evaluation” (Eur J Med Chem, 2022).

For one data set, the system named is HepG2. Description: Cell cycle arrest in human HepG2 cells assessed as accumulation at G1 phase at 0.2 uM measured after 24 hrs by propidium iodide staining based flow cytometry (reference value: 42.27%). The format is functional.
The nature of data set [1]: MRT (0 to t) in ICR mouse at 10 mg/kg, iv. The format is ADME, organism-based. The following applies: in vivo.

In the case of `C[C@H]1CCC/C=C/[C@@H]2C[C@H](O)C[C@H]2[C@H](OC(=O)/C=C/c2ccc(N(C)C)cc2)/C=C/C(=O)O1`, the Activity in the data set on HepG2 is given as 48.26%. In data set [1], this compound came in with a mean residence time MRT last of 19.2 min.
